# Data taken from patent publication US20050049299A1, “Selective inhibitors of stat-3 activation and uses thereof” (priority 2003, published 2005).
# Legend:
# STAT3 phosphorylation [1] = experiment: Constitutive STAT3 phosphorylation in U266 cells (Western blot); type: cell-based, human
# Protocol: U266 cells (2×10^6) were treated with the indicated concentrations of curcumin for 1 h, or treated with 50 μM curcumin for the indicated durations and levels of phosphorylated-STAT3 (upper panel) and STAT3 (lower panel) were examined in whole cell extracts by Western Blotting. […] U266 cells (2×10^6) were treated with 50 μM curcumin for indicated durations, and examined for phosphorylated and nonphosphorylated-STAT3, and STAT5. […] U266 cells (2×10^6) were preincubated with curcumin (50 μM) for indicated durations before treatment with IFN-α (10 ng/ml) for additional 30 min and then examined for phosphorylated and nonphosphorylated-STAT1.
# U266 cells (2×10^6 cells) were treated with 50 μM curcumin for the indicated durations (left panels) or treated for 1 h and washed with PBS two times to remove curcumin before resuspending in fresh medium. Cells were removed at indicated times and lysed to prepare the whole cell extract (right panels). Thirty micrograms of whole cell extracts were resolved on 7.5% SDS-PAGE, electrotransferred to a nitrocellulose membrane, probed for the phosphorylated-STAT3 (upper panels) and stripped and reprobed for STAT3 (middle panels) and β-actin (lower panels).
# Thirty micrograms of whole-cell extract was resolved on 7.5% SDS-PAGE, electrotransferred to a nitrocellulose membrane, probed for the phospho-STAT3 (upper panel), stripped, and reprobed for STAT3 (middle panel) and β-actin (lower panel).
# (§1) For detection of STAT proteins, whole-cell extracts were prepared by lysing the curcumin-treated cells in lysis buffer (20 mM Tris, pH 7.4, 250 mM NaCl, 2 mM EDTA, pH 8.0, 0.1% Triton-X100, 0.01 mg/ml aprotinin, 0.005 mg/ml leupeptin, 0.4 mM PMSF, and 4 mM NaVO4). Lysates were then spun at 14000 rpm for 10 min to remove insoluble material, and resolved on a 7.5% gel. After electrophoresis, the proteins were electrotransferred to a nitrocellulose membrane, blocked with 5% nonfat milk, and probed with anti-STAT antibodies (1:1000) overnight at 4° C. The blot was washed, exposed to HRP-conjugated secondary antibodies for 1 h, and finally examined by chemiluminescence (ECL, Amersham Pharmacia Biotech. Arlington Heights, Ill.).
# Whether curcumin inhibits the constitutive STAT3 phosphorylation in U266 was investigated. U266 cells were incubated either with different concentrations of curcumin for 1 h or with 50 μM curcumin for different times. Curcumin inhibited the constitutively active STAT3 in a dose-(FIG. 1A) and time-(FIG. 1B) dependent manner. Curcumin-induced inhibition could be observed as early as 10 min and with a concentration as low as 10 μM.
# Whether curcumin-induced inhibition of STAT3 phosphorylation was reversible was further examined. U266 cells were first treated for 60 min with curcumin, and then the cells were washed twice with PBS to remove curcumin. The cells were then cultured in the fresh medium for various durations, and the levels of phosphorylated STAT3 were measured.
# In comparison, treatment of cells with 50 μM curcumin for 60 minutes was sufficient to inhibit STAT3 phosphorylation (see FIGS. 1A and 1B).
# multiple myeloma cells = experiment: Proliferation of multiple myeloma cells, curcumin vs AG490 (data not shown); type: cell-based, human; details: 100 μM, 24 hours (data not shown)
# STAT3 phosphorylation [2] = experiment: Constitutive STAT3 phosphorylation in MDA 1986LN cells (Western blot); type: cell-based, human; details: AG490 100 μM, 8 hrs
# Protocol: TU167, MDA 1986LN, TU 686, MDA 686LN and JMAR cells (2×10^6 cells) were lysed and whole cell extracts (30 μg) were resolved on 7.5% SDS-PAGE, electrotransferred to a nitrocellulose membrane and probed for phosphorylated-STAT3 (p-STAT3) and total STAT3 proteins. […] MDA 1986LN cells (2×10^6 cells) were treated with curcumin (50 μM) for indicated durations or with indicated concentrations of curcumin for 1 h and levels of p-STAT3 (upper panels) and STAT3 (lower panels) were examined in whole cell extracts by Western blotting.
# MDA 1986LN cells (2×10^6 cells) were treated with curcumin (50 μM) for the indicated durations (upper panels) or treated for 1 h and washed twice with PBS to remove curcumin before re-suspending in fresh medium. Cells were removed at indicated times and lysed to prepare the whole cell extract (lower panels). The whole cell extracts (30 μg) were resolved on 7.5% SDS-PAGE, electrotransferred to a nitrocellulose membrane, probed for the p-STAT3 (upper panels) and striped and reprobed for STAT3 (lower panels).
# MDA 1986LN cells (2×10^6 cells) were treated with indicated concentrations of AG490 for 8 h and whole extracts prepared. These whole-cell extracts (30 μg) were resolved on 7.5% SDS-PAGE, electrotransferred to a nitrocellulose membrane, probed for p-STAT3 (upper panel), striped and reprobed for STAT3 (middle panel) and β-actin (lower panel). […] The cells were treated with AG490 (100 μM) for the indicated durations and whole cell extracts prepared and analyzed as mentioned earlier. FIG. 15C compares the effect of curcumin and AG490 on proliferation of MDA 1986LN cells by MTT assay.
# Since STAT3 was constitutively phosphorylated in MDA 1986LN cells, the ability of curcumin to inhibit the constitutive STAT3 phosphorylation was examined. MDA 1986LN cells were treated either with curcumin (50 μM) for different durations or with different concentrations of curcumin for 1 h and the p-STAT3 levels and STAT3 levels were determined. Curcumin inhibited the constitutively active STAT3 in a time-(FIG. 11B) and a dose-(FIG. 11C) manner. This curcumin-induced inhibition could be observed as early as 30 min and with a concentration as low as 25 μM.
# MDA 1986LN cells were treated with curcumin for indicated times or for 1 h and the cells were washed twice with PBS to remove curcumin. The cells were then cultured in media for various durations and the levels of phosphorylated STAT3 were determined. […] However, the STAT3 levels were unaffected by curcumin treatment.
# The concentration and the exposure time for AG490 to inhibit STAT3 phosphorylation in MDA 1986LN cells were determined. These cells were incubated with either different concentrations of AG490 or with 100 μM of AG490 for different durations and the levels of p-STAT3 and STAT3 were assessed.
# STAT3 phosphorylation [3] = experiment: Constitutive STAT3 phosphorylation in U266 cells (Western blot); type: cell-based, human; remark: listed apart in the source
# STAT3 phosphorylation [4] = experiment: IL-6-inducible STAT3 phosphorylation in RPMI 8226 cells (Western blot); type: cell-based, human; details: IL-6 10 ng/ml
# Protocol: FIGS. 3A-C show& that IL-6 induces STAT3 phosphorylation in human multiple myeloma RPMI 8226 cells and curcumin inhibits it. […] U266, RPMI 8226, MM.1S, MM.1R and OCl cells (2×10^6) were lysed, and 30 μg of whole-cell extracts were resolved on 7.5% SDS-PAGE, electrotransferred to a nitrocellulose membrane, and probed for phosphorylated-STAT3 (upper panel) and STAT3 (lower panel). […] Thirty micrograms of whole cell extracts were resolved on 7.5% SDS-PAGE, electrotransferred to a nitrocellulose membrane, and probed for the phosphorylated-STAT3 (upper panel) and stripped and reprobed for STAT3 (middle panel) and β-actin (lower panel).
# as §1
# Since IL-6 is a growth factor for multiple myeloma and induces STAT3 phosphorylation (5, 6, 15), whether curcumin could inhibit IL-6-induced STAT3 phosphorylation was examined. […] IL-6 induced phosphorylation of STAT3 as early as 5 min and began to decline at 60 minutes (FIG. 3B). RPMI 8226 cells were then incubated with curcumin for different times and examined for IL-6-inducible STAT3 phosphorylation.
# Exposure of cells to curcumin for 4 hours was sufficient to completely suppress IL-6-induced STAT3 phosphorylation. Curcumin alone had no effect on STAT3 phosphorylation in these cells (data not shown).
# U266 cells = experiment: IL-6-induced proliferation of U266 cells (thymidine incorporation, MTT); type: cell-based, human; details: serum starved 12 h, IL-6 48 h
# Protocol: (§2) FIGS. 7A-B show& that IL-6 induces proliferation of human multiple myeloma cells and curcumin inhibits it. […] Cell proliferation assays were performed as described below. Results are shown as mean (±s.d.) of percent [^3H] thymidine incorporation or percent proliferation by MTT of triplicate cultures compared to the untreated control.
# (§3) The antiproliferative effects of curcumin against different multiple myeloma cell lines were determined by the MTT dye uptake method as described earlier (28). Briefly, the cells (5000/well) were incubated in triplicate in a 96-well plate in the presence or absence of indicated test samples in a final volume of 0.1 ml for 24 h at 37° C. […] The OD at 570 nm was measured using a 96-well multiscanner autoreader (Dynatech MR 5000), with the extraction buffer serving as blank. Percent cell viability cell viability was calculated using the following formula: Percent cell viability=(OD of the experiment samples/OD of the control)×100.
# (§4) The antiproliferative effects of curcumin were also monitored by the thymidine incorporation method. […] Six hours before the completion of experiment, cells were pulse treated with 0.5 μCi [^3H]thymidine, and the uptake of [^3H]thymidine was monitored using a Matrix-9600 β-counter (Packard Instruments, Downers Grove, Ill.). […]
# (§5) Whether curcumin suppresses the proliferative effects of IL-6 was determined.
# MM.1 cells = experiment: IL-6-induced proliferation of MM.1 cells; type: cell-based, human; details: serum starved 12 h, IL-6 48 h
# Protocol: as §2, §3, §4, §5
# MM.1R cells = experiment: IL-6-induced proliferation of MM.1R cells; type: cell-based, human; details: serum starved 12 h, IL-6 48 h
# Protocol: as §2, §3, §4, §5
# RPMI 8226 cells = experiment: IL-6-induced proliferation of RPMI 8226 cells; type: cell-based, human; details: serum starved 12 h, IL-6 48 h
# Protocol: as §2
# The antiproliferative effects of curcumin were also monitored by the thymidine incorporation method. For this, 5000 cells in 100 μl medium were cultured in triplicate in 96-well plates in the presence or absence of curcumin for 24 h. Six hours before the completion of experiment, cells were pulse treated with 0.5 μCi [^3H]thymidine, and the uptake of [^3H]thymidine was monitored using a Matrix-9600 β-counter (Packard Instruments, Downers Grove, Ill.).
# To reconfirm previous reports (5, 6, 15, 31) that IL-6 induces proliferation of MM cells, U266, RPMI 8226, MM.1 and MM.1R were serum-starved for 12 h and then cultured them in the absence or presence of different concentrations of IL-6 for 48 h.
# STAT3 phosphorylation [5] = experiment: STAT3 phosphorylation in MM.1S and MM.1R cells after TNF, LT or IL-6 (Western blot); type: cell-based, human; details: IL-6 10 minutes (positive control)
# Protocol: The cell proliferation assay was performed as described below. Results are shown as mean (±s.d. indicated by error bar) of percent [^3H] thymidine incorporation of triplicate cultures compared to the untreated control. […] Cells were treated with IL-6 for 10 minutes as a positive control for STAT3 phosphorylation. Thirty micrograms of whole cell extract was were resolved on 7.5% SDS-PAGE, electrotransferred to a nitrocellulose membrane, and probed for phosphorylated-STAT3 (upper panel), stripped, and reprobed for STAT3 (lower panel).
# as §1
# MM.1S and MM.1R cells were serum starved for 12 h and then treated with TNF or lymphotoxin in the serum free medium.
# STAT3 phosphorylation [6] = experiment: IL-6-induced STAT3 phosphorylation in JMAR cells (Western blot); type: cell-based, human; details: IL-6 10 ng/ml
# Protocol: JMAR cells (2×10^6 cells) were treated with IL-6 (10 ng/ml) for the indicated time and whole cell extracts were prepared. These extracts (30 μg) were resolved on 7.5% SDS-PAGE, electrotransferred to a nitrocellulose membrane and probed for p-STAT3 (upper panel) and stripped and re-probed for STAT3 (lower panel). […] JMAR cells were pretreated with curcumin (50 μM) for indicated durations and stimulated with IL-6 (10 ng/ml) for 10 mins and whole cell extract prepared and probed as mentioned earlier.
# JMAR cells were treated with IL-6 for different durations and the levels of p-STAT3 and STAT3 were examined. Treatment with IL-6 as early as 5 mins induced STAT3 phosphorylation in JMAR cells (FIG. 14A, upper panel). However, STAT3 levels were unaffected (FIG. 14A, lower panel).
# Further, since IL-6 induced STAT3 phosphorylation in JMAR cells, the ability of curcumin to inhibit this STAT3 phosphorylation was also examined. JMAR cells were pretreated with curcumin for different durations and stimulated with IL-6 for 10 minutes. Both the status of p-STAT3 and STAT3 were determined in the whole cell extracts of these cells. Treatment with curcumin for as early as 30 minutes led to decline in the phosphorylation of STAT3 which declined further with increased exposure to curcumin. Exposure to curcumin for 2 hours inhibited STAT3 phosphorylation in JMAR cells (FIG. 14B, upper panel). The STAT3 levels were unaffected by this treatment (FIG. 14B, lower panel).
# [7] = tested on: MDA 1986LN, JMAR and MDA 686LN cells; experiment: IL-6-induced proliferation of human HNSCC cells (thymidine incorporation); type: cell-based; details: serum starved 12 hrs, IL-6 48 hrs
# Protocol: Human head and neck squamous cell carcinoma cells MDA 1986LN, JMAR and MDA 686LN were serum starved for 12 hrs. These cells were then cultured with the indicated concentrations of IL-6 for 48 hrs in serum-free medium. Cell viability was determined by thymidine incorporation method.
# The present invention also investigated the effect of IL-6 on the proliferation of human HNSCC cells such as MDA 1986LN, JMAR and MDA 686LN by thymidine incorporation method. These cells were serum starved for 12 hrs and then cultured with different concentrations of IL-6 for 48 hrs in serum-free medium.
Compound,dose needed to suppress STAT3 phosphorylation (comparison AG490 vs curcumin) (STAT3 phosphorylation [1]) [µM],proliferation of multiple myeloma cells (multiple myeloma cells),inhibition of STAT3 phosphorylation (STAT3 phosphorylation [2]),exposure needed to completely inhibit STAT3 phosphorylation (STAT3 phosphorylation [3]; 100 μM AG490) [h],dose needed to completely inhibit STAT3 phosphorylation (STAT3 phosphorylation [3]; 8 h) [µM],earliest time of IL-6-induced phosphorylation of STAT3 (STAT3 phosphorylation [4]) [min],time at which IL-6-induced STAT3 phosphorylation began to decline (STAT3 phosphorylation [4]) [min],proliferation of U266 cells induced by IL-6 (U266 cells),proliferation of MM.1 cells induced by IL-6 (MM.1 cells),proliferation of MM.1R cells induced by IL-6 (MM.1R cells),proliferation response of RPMI 8226 cells to IL-6 (RPMI 8226 cells),induction of STAT3 phosphorylation (STAT3 phosphorylation [5]),earliest time of IL-6-induced STAT3 phosphorylation (STAT3 phosphorylation [6]) [min],proliferation of human HNSCC cells induced by IL-6 [7]
N#C/C(=C/c1ccc(O)c(O)c1)C(=O)NCc1ccccc1 [AG490],100,no effect,completely inhibited,8,100,,,,,,,,,
IL-6: bacteria-derived recombinant human IL-6 provided by Sandoz Pharmaceutical,,,,,,5,60,induced proliferation,induced proliferation,induced proliferation,did not respond,induced STAT3 phosphorylation in both cell lines,5,"induced proliferation of MDA 1986LN, JMAR and MDA 686LN cells"
